Biological target: NLRP3 inflammasome (Homo sapiens, UniProt Q96P20)
Assay: THP-1 ASC-GFP speck assay
Type: cell-based
Design: host or cells: THP-1 ASC-GFP cells, PMA-differentiated, LPS-primed, nigericin-stimulated
Settings: THP-1 ASC-GFP cells, PMA differentiated, LPS primed, 10 μM nigericin; read-out: THP1 ASC Speck IC50
Experimental: THP-1 ASC-GFP cell line was purchased from Invivogen, San Diego, for inflammasome activation assay. THP-1 ASC-GFP cells stably express a 37.6 kDa ASC::GFP fusion protein that enables monitoring of spec formation by microscopy after activation of NLRP3 dependent inflammasome pathway. Cells were maintained at a density of 600,000 cells/mL in growth media consisting of RPMI 1640, 2 mM L-glutamine, 25 mM HEPES and 10% heat inactivated fetal bovine serum at 37° C. and 5% CO2. Cells were passaged every 3-4 days and used for assays for up to 20 passages.
THP-1 ASC-GFP cells were collected by centrifuging cells at 800 RPM for 5 minutes. Cell culture supernatant was removed and cells were re-suspended in fresh media at density of 1×10^6 cells/mL in assay media consisting of RPMI 1640, 2 mM L-glutamine, 25 mM HEPES and 10% heat inactivated fetal bovine serum. Phorbol 12-myristate 13-acetate (PMA) (Invivogen, tlrl-pma) was added to the cell suspension at a final concentration of 500 ng/ml and mixed thoroughly. 40,000 cells were added per well of a 384 well plate and differentiated into macrophages overnight at 37° C. and 5% CO2. Cells were primed with 1 μg/mL of lipopolysaccharide (Invivogen Ultrapure lipopolysaccharide from E. coli, tlrl-3pelps) in assay media for 3 hours at 37° C. and 5% CO2. After priming, media was removed and THP-1 ASC-GFP cells were preincubated with serially diluted test compounds with starting concentration of 40 μM followed by 2-fold dilution for a 20-point curve or vehicle (DMSO) for 30 min in assay media at 37° C. and 5% CO2. Cells were then stimulated with 10 μM nigericin (Invivogen, tlrl-nig-5) for 90 min at 37° C. and 5% CO2 to activate NLRP3 dependent inflammasome pathway and spec formation. After stimulation, cells were fixed with 4.8% paraformaldehyde (Electron Microscopy Sciences #15710-S) and incubated at room temperature for 15 min. Cells were then washed 3-times with 100 μL of phosphate buffered saline and permeabilized in the presence of premeablization/block buffer for 20 min at room temperature. Cells were then washed 3-times with 100 μL phosphate buffered saline and incubated for 1 hr at room temperature in the presence of hoechst. After staining with Hoechst, cells were washed 3-times with 100 μL phosphate buffered saline and imaged for ASC spec formation.
THP-1 ASC-GFP cells were imaged in 488 and Hoechst channels. Hoechst channel was used for cell count and 488 channel was used to identify number of GFP ASC specks in imaged fields. Percentage of cells with a spec was calculated by dividing the number of GFP positive spots by total number of cells.

Chain of NLRP3 inflammasome (Q96P20 whole entry): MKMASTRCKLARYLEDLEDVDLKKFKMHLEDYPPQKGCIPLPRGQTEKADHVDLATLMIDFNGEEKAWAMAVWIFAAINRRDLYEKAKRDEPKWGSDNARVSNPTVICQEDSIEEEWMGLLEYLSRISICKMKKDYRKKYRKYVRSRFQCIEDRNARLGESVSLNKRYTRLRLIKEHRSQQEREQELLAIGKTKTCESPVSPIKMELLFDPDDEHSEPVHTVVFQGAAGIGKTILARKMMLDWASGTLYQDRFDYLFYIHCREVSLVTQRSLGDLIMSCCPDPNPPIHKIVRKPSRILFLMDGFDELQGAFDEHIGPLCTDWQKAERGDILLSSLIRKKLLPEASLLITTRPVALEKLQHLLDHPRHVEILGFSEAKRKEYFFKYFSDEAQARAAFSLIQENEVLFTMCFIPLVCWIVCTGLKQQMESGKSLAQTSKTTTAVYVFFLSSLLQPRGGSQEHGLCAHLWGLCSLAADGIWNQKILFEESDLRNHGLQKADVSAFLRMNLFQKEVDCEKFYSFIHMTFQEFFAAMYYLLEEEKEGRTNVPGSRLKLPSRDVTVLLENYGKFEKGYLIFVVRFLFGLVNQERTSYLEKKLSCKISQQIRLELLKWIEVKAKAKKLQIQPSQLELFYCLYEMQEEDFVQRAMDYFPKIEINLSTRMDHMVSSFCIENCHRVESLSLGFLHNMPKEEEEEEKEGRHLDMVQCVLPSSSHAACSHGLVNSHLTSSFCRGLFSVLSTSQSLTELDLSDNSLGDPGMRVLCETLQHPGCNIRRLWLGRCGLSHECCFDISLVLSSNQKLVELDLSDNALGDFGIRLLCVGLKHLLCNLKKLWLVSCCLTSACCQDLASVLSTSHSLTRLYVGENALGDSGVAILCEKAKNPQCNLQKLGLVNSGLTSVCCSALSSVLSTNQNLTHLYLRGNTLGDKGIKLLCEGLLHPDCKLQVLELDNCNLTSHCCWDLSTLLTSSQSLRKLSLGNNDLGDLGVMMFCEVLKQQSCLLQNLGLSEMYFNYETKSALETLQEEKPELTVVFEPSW

IC50 [nM]	SMILES
7700	COC1CCOc2c(S(N)(=O)=NC(=O)Nc3c4c(cc5c3CCC5)CCC4)cnn2C1 (single isomer, unassigned) [Example 88]
> 20000	COC1CCOc2c(S(N)(=O)=NC(=O)Nc3c4c(cc5c3CCC5)CCC4)cnn2C1 (single isomer, unassigned) [Example 89]
320	COC1CCOc2c(S(N)(=O)=NC(=O)Nc3c4c(cc5c3CCC5)CCC4)cnn2C1 (single isomer, unassigned) [Example 90]
490	COC1CCOc2c(S(N)(=O)=NC(=O)Nc3c4c(cc5c3CCC5)CCC4)cnn2C1 (single isomer, unassigned) [Example 91]
8200	COC1CCn2ncc(S(N)(=O)=NC(=O)Nc3c4c(cc5c3CCC5)CCC4)c2OC1 (single isomer, unassigned) [Example 92]
360	COC1CCn2ncc(S(N)(=O)=NC(=O)Nc3c4c(cc5c3CCC5)CCC4)c2OC1 (single isomer, unassigned) [Example 93]
> 20000	CC(C)c1nn(CC(F)F)c(C(C)C)c1NC(=O)N=S(N)(=O)c1cnn2c1OCCC2 (single isomer, unassigned) [Example 96]
1300	CC(C)c1nn(CC(F)F)c(C(C)C)c1NC(=O)N=S(N)(=O)c1cnn2c1OCCC2 (single isomer, unassigned) [Example 97]
> 20000	CCn1nc(C(C)C)c(NC(=O)N=S(N)(=O)c2cnn3c2OCCC3)c1C(C)C (single isomer, unassigned) [Example 98]
1700	CCn1nc(C(C)C)c(NC(=O)N=S(N)(=O)c2cnn3c2OCCC3)c1C(C)C (single isomer, unassigned) [Example 99]
2700	NS(=O)(=NC(=O)Nc1c2c(cc3c1CCC3)CCC2)c1cnn2c1SCCC2 (single isomer, unassigned) [Example 100]
> 20000	NS(=O)(=NC(=O)Nc1c2c(cc3c1CCC3)CCC2)c1cnn2c1SCCC2 (single isomer, unassigned) [Example 101]
5100	COc1cc(C(C)C)c(NC(=O)N=S(N)(=O)c2cnn3c2OCCC3)c(C(C)C)n1 (single isomer, unassigned) [Example 102]
> 20000	COc1cc(C(C)C)c(NC(=O)N=S(N)(=O)c2cnn3c2OCCC3)c(C(C)C)n1 (single isomer, unassigned) [Example 103]
9900	CNC1CCOc2c(S(N)(=O)=NC(=O)Nc3c4c(cc5c3CCC5)CCC4)cnn2C1 (single isomer, unassigned) [Example 105]
150	CNC1CCOc2c(S(N)(=O)=NC(=O)Nc3c4c(cc5c3CCC5)CCC4)cnn2C1 (single isomer, unassigned) [Example 106]
9000	CN1CCCn2ncc(S(N)(=O)=NC(=O)Nc3c4c(cc5c3CCC5)CCC4)c21 (single isomer, unassigned) [Example 107]
> 20000	CN1CCCn2ncc(S(N)(=O)=NC(=O)Nc3c4c(cc5c3CCC5)CCC4)c21 (single isomer, unassigned) [Example 108]
5700	CNC1CCOc2c(S(N)(=O)=NC(=O)Nc3c4c(cc5c3CCC5)CCC4)cnn2C1 (single isomer, unassigned) [Example 109]
120	CNC1CCOc2c(S(N)(=O)=NC(=O)Nc3c4c(cc5c3CCC5)CCC4)cnn2C1 (single isomer, unassigned) [Example 110]
100	CN(C)[C@@H]1COc2c([S@](=O)(=NC(=O)Nc3c4c(c(F)c5c3CCC5)CCC4)NC#N)cnn2C1 (single isomer, unassigned) [Example 111]
610	CO[C@H]1CCOc2c([S@@](=O)(=NC(=O)Nc3c4c(cc5c3CCC5)CCC4)NC#N)cnn2C1 (single isomer, unassigned) [Example 112]
> 20000	CC(C)c1nn(CC2CC2)c(C(C)C)c1NC(=O)N=S(N)(=O)c1cnn2c1OCCC2 (single isomer, unassigned) [Example 113]
4400	CC(C)c1nn(CC2CC2)c(C(C)C)c1NC(=O)N=S(N)(=O)c1cnn2c1OCCC2 (single isomer, unassigned) [Example 114]

IC50 [nM]	SMILES
2500	COC1COc2c(S(=O)(=NC(=O)Nc3c4c(cc5c3CCC5)CCC4)NC(C)=O)cnn2C1 (single isomer, unassigned) [Example 115]
2100	COC1COc2c(S(=O)(=NC(=O)Nc3c4c(cc5c3CCC5)CCC4)NC(C)=O)cnn2C1 (single isomer, unassigned) [Example 116]
4300	NS(=O)(=NC(=O)Nc1c2c(cc3c1CCC3)CCC2)c1cnn2c1CCOCC2 (single isomer, unassigned) [Example 117]
> 20000	NS(=O)(=NC(=O)Nc1c2c(cc3c1CCC3)CCC2)c1cnn2c1CCOCC2 (single isomer, unassigned) [Example 118]
58	COc1cc(-c2cc(F)cc(C(C)C)c2NC(=O)N=S(N)(=O)c2cnn3c2OCCC3)ccn1 (single isomer, unassigned) [Example 119]
1200	COc1cc(-c2cc(F)cc(C(C)C)c2NC(=O)N=S(N)(=O)c2cnn3c2OCCC3)ccn1 (single isomer, unassigned) [Example 120]
2700	CO[C@@H]1CCOc2c([S@](=O)(=NC(=O)Nc3c4c(cc5c3CCC5)CCC4)NC#N)cnn2C1 (single isomer, unassigned) [Example 121]
800	CO[C@@H]1CCOc2c([S@@](=O)(=NC(=O)Nc3c4c(cc5c3CCC5)CCC4)NC#N)cnn2C1 (single isomer, unassigned) [Example 122]
120	CO[C@H]1CCOc2c([S@](=O)(=NC(=O)Nc3c4c(cc5c3CCC5)CCC4)NC#N)cnn2C1 (single isomer, unassigned) [Example 123]
54	NS(=O)(=NC(=O)Nc1c2c(cc3c1CCC3)CCC2)c1cnn2c1OCC2 (single isomer, unassigned) [Example 124]
1700	NS(=O)(=NC(=O)Nc1c2c(cc3c1CCC3)CCC2)c1cnn2c1OCC2 (single isomer, unassigned) [Example 125]
> 20000	CC1CCc2cc3c(c(NC(=O)N=S(N)(=O)c4cnn5c4OCCC5)c21)CCC3 (single isomer, unassigned) [Example 126]
3300	CC1CCc2cc3c(c(NC(=O)N=S(N)(=O)c4cnn5c4OCCC5)c21)CCC3 (single isomer, unassigned) [Example 127]
1700	CC1CCc2cc3c(c(NC(=O)N=S(N)(=O)c4cnn5c4OCCC5)c21)CCC3 (single isomer, unassigned) [Example 128]
19	CC1CCc2cc3c(c(NC(=O)N=S(N)(=O)c4cnn5c4OCCC5)c21)CCC3 (single isomer, unassigned) [Example 129]
14000	CNC1CCn2ncc(S(N)(=O)=NC(=O)Nc3c4c(cc5c3CCC5)CCC4)c2OC1 (single isomer, unassigned) [Example 130]
920	CNC1CCn2ncc(S(N)(=O)=NC(=O)Nc3c4c(cc5c3CCC5)CCC4)c2OC1 (single isomer, unassigned) [Example 131]
1200	CNC1CCn2ncc(S(N)(=O)=NC(=O)Nc3c4c(cc5c3CCC5)CCC4)c2OC1 (single isomer, unassigned) [Example 132]
2800	NS(=O)(=NC(=O)Nc1c2c(cc3c1CCC3)CCC2)c1cnn2c1C(F)(F)CCC2 (single isomer, unassigned) [Example 133]
> 20000	NS(=O)(=NC(=O)Nc1c2c(cc3c1CCC3)CCC2)c1cnn2c1C(F)(F)CCC2 (single isomer, unassigned) [Example 134]
> 20000	CC1CCc2cc3c(c(NC(=O)N=S(N)(=O)c4cnn5c4OCC(C)(C)C5)c21)CCC3 (single isomer, unassigned) [Example 135]
3800	CC1CCc2cc3c(c(NC(=O)N=S(N)(=O)c4cnn5c4OCC(C)(C)C5)c21)CCC3 (single isomer, unassigned) [Example 136]
28	CC1CCc2cc3c(c(NC(=O)N=S(N)(=O)c4cnn5c4OCC(C)(C)C5)c21)CCC3 (single isomer, unassigned) [Example 137]
790	CC1CCc2cc3c(c(NC(=O)N=S(N)(=O)c4cnn5c4OCC(C)(C)C5)c21)CCC3 (single isomer, unassigned) [Example 138]

From patent US12234245B2, “Sulfonimidamide compounds as inhibitors of interleukin-1 activity” (Genentech, Inc., priority 2018, dated 2025)
